The target of this experiment is T1, interaction between VCAM-1 and VLA-4 (VLA-4 on human U937 cells / hVCAM-1(1-3)-IgG) (Homo sapiens, UniProt P05556+P13612).
T1 construct: offered in their natural form as surface molecules on human U937 cells; host or cells: U937 cells carry the endogenous VLA-4; The partner hVCAM-1(1-3)-IgG was made in house in transfected COS cells (ATCC CRL1651) and used as culture supernatant
Description: U937/VCAM-1 cell adhesion test: adhesion of U937 cells to hVCAM-1(1-3)-IgG. As to conditions: inhibition of adhesion of U937 cells (ATCC CRL 1593) to hVCAM-1(1-3)-IgG. The format is cell-based. The text has this:
As a test method for the activity of the compounds of the formula Ib on the interaction between VCAM-1 and VLA-4, an assay is used which is specific for this interaction. The cellular binding components, i.e. the VLA-4-integrins, are offered in their natural form as surface molecules on human U937 cells (ATCC CRL 1593), which belong to the group of leucocytes. As specific binding components, recombinant soluble fusion proteins prepared by genetic engineering and consisting of the extracytoplasmic domains of human VCAM-1 and the constant region of a human immunoglobulin of the subclass IgG1 are used.
Assay for the measurement of the adhesion of U937 cells (ATCC CRL 1593) to hVCAM-1(1-3)-IgG
1. Preparation of human VCAM-1(1-3)-IgG and human CD4-IgG
A genetic construct for the expression of the extracellular domains of human VCAM-1 was employed, associated with the genetic sequence of the heavy chain of human immunoglobulin IgG-1 (hinge, CH2 and CH3 regions), from Dr. Brian Seed, Massachusetts General Hospital, Boston, USA. The soluble fusion protein hVCAM-1(1-3)-IgG contained the three amino-terminal extracellular immunoglobulin-like domains of human VCAM-1 (Damle and Aruffo, Proc. Natl. Acad. Sci. USA 1991, 88, 6403). CD4-IgG (Zettlmeissl et al., DNA and Cell Biology 1990, 9, 347) served as a fusion protein for negative controls. The recombinant proteins were expressed as soluble proteins after DEAE/dextran-mediated DNA-transfection in COS cells (ATCC CRL1651) according to standard procedures (Ausubel et al., Current protocols in molecular biology, John Wiley & Sons, Inc., 1994).
2. Assay for measurement of the adhesion of U937 cells to hVCAM-1(1-3)-IgG
2.1 96-well microtiter test plates (Nunc Maxisorb) were incubated at room temperature for 1 hour with 100 μl/well of a goat-anti-human IgG antibody solution (10 μg/ml in 50 mM Tris, pH 9.5). After removing the antibody solution, washing was carried out once with PBS.
2.2 150 μl/well of a blocking buffer (1% BSA in PBS) was incubated on the plates at room temperature for 0.5 hours. After removing the blocking buffer, washing was carried out once with PBS.
2.3 100 μl per well of a cell culture supernatant of transfected COS cells were incubated on the plates at room temperature for 1.5 hours. The COS cells were transfected with a plasmid which codes for the three N-terminal immunoglobulin-like domains of VCAM-1, coupled to the Fc part of human IgG1 (hVCAM-1(1-3)-IgG). The content of hVCAM-1(1-3)-IgG was about 0.5-1 μg/ml. After removing the culture supernatant, washing was carried out once with PBS.
2.4 The plates were incubated at room temperature for 20 minutes with 100 μl/well of Fc receptor blocking buffer (1 mg/ml of γ-globulin, 100 mM NaCl, 100 μM MgCl2, 100 μM MnCl2, 100 μM CaCl2, 1 mg/ml BSA in 50 mM HEPES, pH 7.5). After removing the Fc receptor blocking buffer, washing was carried out once with PBS.
2.5 20 μl of binding buffer (100 μM NaCl, 100 μM MgCl2, 100 μM MnCl2, 100 μM CaCl2, 1 mg/ml BSA in 50 mM HEPES, pH 7.5), were initially introduced, the substances to be tested were added in 10 μl of binding buffer and the mixture was incubated for 20 minutes. As controls, antibodies against VCAM-1 (BBT, No. BBA6) and against VLA-4 (Immunotech, No. 0764) were used.
2.6 U937 cells were incubated in Fc receptor blocking buffer for 20 minutes and then pipetted in at a concentration of 1×10^6/ml and in an amount of 100 μl per well ([…]).
2.7 The plates were slowly immersed at an angle of 45° in stop buffer (100 mM NaCl, 100 μM MgCl2, 100 μM MnCl2, 100 μM CaCl2 in 25 mM Tris, pH 7.5) and shaken off. The process was repeated.
2.8 50 μl/well of a dye solution (16.7 μg/ml of Hoechst dye 33258, 4% formaldehyde, 0.5% Triton X-100 in PBS) were then incubated on the plates for 15 minutes.
2.9 The plates were shaken off and slowly immersed at an angle of 45° in stop buffer (100 mM NaCl, 100 μM MgCl2, 100 μM MnCl2, 100 μM CaCl2 in 25 mM tris, pH 7.5). The process was repeated. […]

As a reminder, the IC50 is the concentration needed to halve the response being measured. Read a high IC50 as weaker potency in that assay.

The structures appear in SMILES notation.

T1 sequence (P13612 34-1032): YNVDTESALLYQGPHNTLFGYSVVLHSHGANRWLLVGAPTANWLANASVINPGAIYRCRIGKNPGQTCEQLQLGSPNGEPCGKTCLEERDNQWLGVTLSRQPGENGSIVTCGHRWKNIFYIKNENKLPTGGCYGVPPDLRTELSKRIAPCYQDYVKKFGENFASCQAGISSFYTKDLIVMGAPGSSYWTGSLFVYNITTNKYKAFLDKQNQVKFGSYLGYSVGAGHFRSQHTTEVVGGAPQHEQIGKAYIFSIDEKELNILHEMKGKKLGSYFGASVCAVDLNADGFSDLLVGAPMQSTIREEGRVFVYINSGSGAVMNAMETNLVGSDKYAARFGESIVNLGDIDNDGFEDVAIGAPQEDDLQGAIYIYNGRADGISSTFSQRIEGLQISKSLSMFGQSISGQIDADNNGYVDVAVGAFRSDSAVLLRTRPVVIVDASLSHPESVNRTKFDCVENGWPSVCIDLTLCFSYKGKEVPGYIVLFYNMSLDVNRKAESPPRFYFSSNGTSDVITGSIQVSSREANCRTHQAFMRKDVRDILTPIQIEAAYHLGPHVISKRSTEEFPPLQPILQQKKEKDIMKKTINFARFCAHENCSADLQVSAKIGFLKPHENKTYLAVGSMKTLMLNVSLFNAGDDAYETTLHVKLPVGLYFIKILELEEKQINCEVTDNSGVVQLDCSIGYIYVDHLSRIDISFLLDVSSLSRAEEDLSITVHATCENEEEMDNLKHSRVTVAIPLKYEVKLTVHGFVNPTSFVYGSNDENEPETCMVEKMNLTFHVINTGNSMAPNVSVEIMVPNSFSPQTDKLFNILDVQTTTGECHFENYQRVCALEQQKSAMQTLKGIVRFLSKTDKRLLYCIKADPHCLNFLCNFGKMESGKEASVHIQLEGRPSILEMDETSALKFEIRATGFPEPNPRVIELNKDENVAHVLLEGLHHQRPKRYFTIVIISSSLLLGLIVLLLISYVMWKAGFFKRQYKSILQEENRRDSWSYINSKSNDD
T1 sequence (P05556 21-798): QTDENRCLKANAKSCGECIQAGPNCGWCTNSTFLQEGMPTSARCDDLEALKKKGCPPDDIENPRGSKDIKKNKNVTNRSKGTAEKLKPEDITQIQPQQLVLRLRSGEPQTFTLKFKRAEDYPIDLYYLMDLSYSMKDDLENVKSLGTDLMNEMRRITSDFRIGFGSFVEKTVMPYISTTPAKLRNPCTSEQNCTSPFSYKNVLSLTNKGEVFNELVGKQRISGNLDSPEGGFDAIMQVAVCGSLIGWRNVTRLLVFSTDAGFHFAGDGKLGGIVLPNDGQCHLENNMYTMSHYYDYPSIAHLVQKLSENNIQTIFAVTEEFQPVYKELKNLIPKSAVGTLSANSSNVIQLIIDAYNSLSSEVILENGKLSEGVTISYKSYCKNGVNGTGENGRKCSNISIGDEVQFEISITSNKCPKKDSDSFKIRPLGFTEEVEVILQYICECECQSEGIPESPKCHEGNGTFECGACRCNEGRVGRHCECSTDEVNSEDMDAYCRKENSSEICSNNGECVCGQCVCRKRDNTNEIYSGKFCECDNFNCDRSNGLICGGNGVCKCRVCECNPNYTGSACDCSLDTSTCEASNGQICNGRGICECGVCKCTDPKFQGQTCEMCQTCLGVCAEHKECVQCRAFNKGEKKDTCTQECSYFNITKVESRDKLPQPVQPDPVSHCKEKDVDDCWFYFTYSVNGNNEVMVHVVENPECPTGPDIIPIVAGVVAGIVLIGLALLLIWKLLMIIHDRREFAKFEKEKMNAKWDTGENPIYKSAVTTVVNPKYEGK

`CC1(c2ccc(CNC(=O)Nc3ccccc3)cc2)C(=O)N(CC(=O)N[C@@H](CC(=O)O)C(=O)N[C@H](C(=O)O)c2ccccc2)C(=O)N1Cc1ccccc1` (mixture of isomers) [Example 5, ((RS)-3-Benzyl-4-methyl-4-(4-(3-phenylureidomethyl)phenyl)-2,5-dioxoimidazolidin-1-yl)acetyl-L-aspartyl-L-phenylglycine] displayed a concentration for half-maximal inhibition (IC50) of 9 µM.

As to `CC1(c2ccc(C#N)cc2)C(=O)N(CC(=O)N[C@@H](CC(=O)O)C(=O)N[C@H](C(=O)O)c2ccccc2)C(=O)N1Cc1ccc2ccccc2c1` (stereo partly shown) [Example 1], the IC50 was determined as 30 µM.

For `CC1(c2ccc([N+](=O)[O-])cc2)C(=O)N(CC(=O)N[C@@H](CC(=O)O)C(=O)N[C@H](C(=O)O)c2ccccc2)C(=O)N1Cc1ccccc1` (stereo partly drawn) [Example 2, ((R,S)-3 -Benzyl-4-methyl-4-(4-nitrophenyl)-2,5-dioxoimidazolidin-1-yl)acetyl-L-aspartyl-L-phenylglycine], 27.7 µM corresponded to half-maximal inhibition (IC50).

Compound `Cc1ccccc1NC(=O)Nc1ccc(C2(C)C(=O)N(CC(=O)N[C@@H](CC(=O)O)C(=O)N[C@H](C(=O)O)c3ccccc3)C(=O)N2Cc2ccccc2)cc1` (stereo partly drawn) [Example 3, ((R,S)-3-Benzyl-4-methyl-4-(4-(3-(2-methylphenyl)ureido)phenyl)-2,5-dioxoimidazolidin-1-yl)acetyl-L-aspartyl-L-phenylglycine] had an IC50 of 2.8 µM.

Compound `CC1(c2ccc(CNC(=O)NCc3ccccc3)cc2)C(=O)N(CC(=O)N[C@@H](CC(=O)O)C(=O)N[C@H](C(=O)O)c2ccccc2)C(=O)N1Cc1ccccc1` (stereo partly drawn) [Example 4, ((R,S)-3-Benzyl-4-(4-(3-benzylureidomethyl)phenyl)-4-methyl-2,5-dioxoimidazolidin-1-yl)acetyl-L-aspartyl-L-phenylglycine] gave an IC50 of 14 µM.

Turning to `Cc1ccccc1NC(=O)NCc1ccc(C2(C)C(=O)N(CC(=O)N[C@@H](CC(=O)O)C(=O)N[C@H](C(=O)O)c3ccccc3)C(=O)N2Cc2ccccc2)cc1` (stereo partly drawn) [Example 6, ((R,S)-3 -Benzyl-4-methyl-4-(4-(3-(2-methylphenyl)ureidomethyl)phenyl)-2,5-dioxoimidazolidin-1-yl)acetyl-L-aspartyl-L-phenylglycine], half-maximal inhibition (IC50) required 6.5 µM.

Take `CC1(c2ccc(CNC(=O)NCCc3ccccc3)cc2)C(=O)N(CC(=O)N[C@@H](CC(=O)O)C(=O)N[C@H](C(=O)O)c2ccccc2)C(=O)N1Cc1ccccc1` (stereo partly drawn) [Example 7, ((R,S)-3-Benzyl-4-methyl-4-(4-(3-(2-phenylethyl)ureidomethyl)phenyl)-2,5-dioxoimidazolidin-1-yl)acetyl-L-aspartyl-L-phenylglycine]: half-maximal inhibition (IC50) required 20 µM.

Values taken from patent US6838439B2, “Heterocytes as inhibitors of leucocyte adhesion and as VLA-4 antagonists” (Aventis Pharma Deutschland GmbH, priority 1996, dated 2005).
